Measured values as given in patent US20250387375A1, “SOFALCONE DERIVATIVES AND MEDICAL USE THEREOF” (KAOHSIUNG MEDICAL UNIVERSITY, priority 2024, published 2025).

tested on: human platelet suspension (platelet aggregation caused by TxA2 agonist U46619); assay: Platelet aggregation reaction test, U46619-induced; assay type: cell-based; details: not given
Procedure: (§1) Blood samples were collected from healthy donors, and acid-citrate-dextrose (ACD) solution was used as an anticoagulant. The blood samples were centrifuged to obtain platelets, and residual plasma was removed by washing to prepare platelet suspension.
(§2) In the experimental method, a platelet aggregometer (Chrono-Log Co., Havertown, PA, USA) was used for tests. The compound to be tested was added to the platelet suspension and reacted for 3 minutes at 37° C. with stirring (1200 rpm). Then, platelet stimulator U46619 or collagen was added to initiate platelet aggregation, and the test time was 5 minutes. The principle of the platelet aggregation test was: when platelets were stimulated to induce aggregation reaction, the light transmission of the platelet suspension would increase; by calculating changes in light transmission of the platelet suspension before and after being stimulated, the percentage of platelet aggregation could be obtained.

SMILES	IC50
CC(C)=CCCC(C)=CCOc1ccc(C=CC(=O)c2ccc(OCC=C(C)CCC=C(C)C)cc2OCCCC(=O)O)cc1 [Compound 4]	0.05 µM
CC(C)=CCCC(C)=CCOc1ccc(C(=O)C=Cc2ccccc2)c(OCCCC(=O)O)c1 [Compound 7]	0.49 µM
CCOC(=O)CCCOc1ccccc1C(=O)C=Cc1ccc(OCC=C(C)CCC=C(C)C)cc1 [Compound 8]	2.78 µM
O=C(O)CCCCCOc1cc(F)ccc1C(=O)/C=C/c1ccccc1 [Compound 11]	54.4 µM
O=C(O)CCCCCOc1cc(F)ccc1C(=O)/C=C/c1ccc(F)cc1 [Compound 12]	0.5 µM
CC(C)=CCOc1ccc(C(=O)/C=C/c2cccc(F)c2)c(OCCCC(=O)O)c1 [Compound 14]	5.18 µM
CC(C)=CCOc1ccc(C(=O)/C=C/c2ccc(F)cc2)c(OCCCC(=O)O)c1 [Compound 15]	0.05 µM
COc1ccc(/C=C/C(=O)c2ccc(OC)cc2OCC(=O)O)cc1 [Compound 18]	> 100 µM
CC(C)=CCOc1ccc(C(=O)/C=C/c2ccccc2OCC=C(C)C)c(OCC(=O)O)c1 [Compound 19]	20.3 µM
CC(C)=CCOc1cccc(/C=C/C(=O)c2ccc(OCC=C(C)C)cc2OCC(=O)O)c1 [Compound 20]	20.6 µM
CC(C)=CCOc1ccc(C(=O)/C=C/c2ccc(OCC=C(C)C)c(OCC=C(C)C)c2)c(OCC(=O)O)c1 [Compound 21]	14.4 µM
CC(C)=CCOc1ccc(C(=O)/C=C/c2ccccc2)c(OCC(=O)O)c1 [Compound 22]	43.2 µM
CC(C)=CCOc1ccc(C(=O)/C=C/c2ccc(Cl)cc2)c(OCC(=O)O)c1 [Compound 24]	43.4 µM
CC(C)=CCOc1ccc(C(=O)/C=C/c2ccc([N+](=O)[O-])cc2)c(OCC(=O)O)c1 [Compound 25]	43.8 µM
CC(=O)Nc1ccc(/C=C/C(=O)c2ccc(OCC=C(C)C)cc2OCC(=O)O)cc1 [Compound 26]	15.7 µM
CC(C)=CCOc1ccc(/C=C/C(=O)c2ccccc2OCC(=O)O)cc1 [Compound 27]	5.07 µM
O=C(O)COc1ccccc1C(=O)/C=C/c1ccc(F)cc1 [Compound 28]	1.8 µM

The remaining lines, values ahead:

IC50	SMILES
0.51 µM	O=C(O)CCCCCOc1ccccc1C(=O)/C=C/c1ccccc1F [Compound 1]
0.05 µM	O=C(O)CCCCCOc1ccccc1C(=O)/C=C/c1cccc(F)c1 [Compound 2]
4.45 µM	CC(C)=CCCC(C)=CCOc1ccc(C(=O)C=Cc2ccc(OCC=C(C)C)cc2)c(OCCCC(=O)O)c1 [Compound 5]
3.66 µM	CC(C)=CCCC(C)=CCOc1ccc(C=CC(=O)c2ccc(OCC=C(C)CCC=C(C)C)cc2OCCCC(=O)O)cc1 [Compound 6]
5.44 µM	CC(C)=CCOc1ccc(/C=C/C(=O)c2ccc(F)cc2OCCCC(=O)O)cc1 [Compound 9]
5.24 µM	CC(C)=CCCC(C)=CCOc1ccc(C=CC(=O)c2ccc(F)cc2OCCCC(=O)O)cc1 [Compound 10]
0.51 µM	CC(C)=CCOc1ccc(C(=O)/C=C/c2ccccc2F)c(OCCCC(=O)O)c1 [Compound 13]
0.37 µM	O=C(O)CCCCCOc1cc(F)ccc1C(=O)/C=C/c1ccc(F)cc1 [Compound 16]
22.2 µM	CC(C)=CCOc1ccc(C(=O)/C=C/c2ccc(F)cc2)c(OCC(=O)O)c1 [Compound 23]

tested on: human platelet suspension (platelet aggregation caused by collagen); assay: Platelet aggregation reaction test, collagen-induced; assay type: cell-based; details: read-out: Collagen IC 50
Procedure: as §1, §2

SMILES	IC50
CC(C)=CCCC(C)=CCOc1ccc(C=CC(=O)c2ccc(OCC=C(C)CCC=C(C)C)cc2OCCCC(=O)O)cc1 [Compound 4]	0.06 µM
CC(C)=CCCC(C)=CCOc1ccc(C(=O)C=Cc2ccccc2)c(OCCCC(=O)O)c1 [Compound 7]	4.03 µM
CCOC(=O)CCCOc1ccccc1C(=O)C=Cc1ccc(OCC=C(C)CCC=C(C)C)cc1 [Compound 8]	4.24 µM
O=C(O)CCCCCOc1cc(F)ccc1C(=O)/C=C/c1ccccc1 [Compound 11]	5.38 µM
O=C(O)CCCCCOc1cc(F)ccc1C(=O)/C=C/c1ccc(F)cc1 [Compound 12]	0.43 µM
CC(C)=CCOc1ccc(C(=O)/C=C/c2cccc(F)c2)c(OCCCC(=O)O)c1 [Compound 14]	7.05 µM
CC(C)=CCOc1ccc(C(=O)/C=C/c2ccc(F)cc2)c(OCCCC(=O)O)c1 [Compound 15]	0.35 µM
COc1ccc(/C=C/C(=O)c2ccc(OC)cc2OCC(=O)O)cc1 [Compound 18]	96.2 µM
CC(C)=CCOc1ccc(C(=O)/C=C/c2ccccc2OCC=C(C)C)c(OCC(=O)O)c1 [Compound 19]	15.2 µM
CC(C)=CCOc1cccc(/C=C/C(=O)c2ccc(OCC=C(C)C)cc2OCC(=O)O)c1 [Compound 20]	28.3 µM
CC(C)=CCOc1ccc(C(=O)/C=C/c2ccc(OCC=C(C)C)c(OCC=C(C)C)c2)c(OCC(=O)O)c1 [Compound 21]	29.7 µM
CC(C)=CCOc1ccc(C(=O)/C=C/c2ccccc2)c(OCC(=O)O)c1 [Compound 22]	12.8 µM
CC(C)=CCOc1ccc(C(=O)/C=C/c2ccc(Cl)cc2)c(OCC(=O)O)c1 [Compound 24]	67.6 µM
CC(C)=CCOc1ccc(C(=O)/C=C/c2ccc([N+](=O)[O-])cc2)c(OCC(=O)O)c1 [Compound 25]	49.2 µM
CC(=O)Nc1ccc(/C=C/C(=O)c2ccc(OCC=C(C)C)cc2OCC(=O)O)cc1 [Compound 26]	40.8 µM
CC(C)=CCOc1ccc(/C=C/C(=O)c2ccccc2OCC(=O)O)cc1 [Compound 27]	18.8 µM
O=C(O)COc1ccccc1C(=O)/C=C/c1ccc(F)cc1 [Compound 28]	4.22 µM

Next, values leading:

IC50	SMILES
0.07 µM	O=C(O)CCCCCOc1ccccc1C(=O)/C=C/c1ccccc1F [Compound 1]
0.05 µM	O=C(O)CCCCCOc1ccccc1C(=O)/C=C/c1cccc(F)c1 [Compound 2]
6.28 µM	CC(C)=CCCC(C)=CCOc1ccc(C(=O)C=Cc2ccc(OCC=C(C)C)cc2)c(OCCCC(=O)O)c1 [Compound 5]
44.4 µM	CC(C)=CCCC(C)=CCOc1ccc(C=CC(=O)c2ccc(OCC=C(C)CCC=C(C)C)cc2OCCCC(=O)O)cc1 [Compound 6]
5.14 µM	CC(C)=CCOc1ccc(/C=C/C(=O)c2ccc(F)cc2OCCCC(=O)O)cc1 [Compound 9]
52.5 µM	CC(C)=CCCC(C)=CCOc1ccc(C=CC(=O)c2ccc(F)cc2OCCCC(=O)O)cc1 [Compound 10]
0.65 µM	CC(C)=CCOc1ccc(C(=O)/C=C/c2ccccc2F)c(OCCCC(=O)O)c1 [Compound 13]
0.62 µM	O=C(O)CCCCCOc1cc(F)ccc1C(=O)/C=C/c1ccc(F)cc1 [Compound 16]
33.5 µM	CC(C)=CCOc1ccc(C(=O)/C=C/c2ccc(F)cc2)c(OCC(=O)O)c1 [Compound 23]
